The kinase profiling compilation of Christmann-Franck et al. (2016)

Key:
Assay in all cases: KINOMEscan competition binding
Conditions in all cases: compound 10.0 µM
PRKD1 (human) = PRKD1 (human) (UniProt Q15139)
CDK3 (human) = CDK3 (human) (UniProt Q00526)
CLK1 (human) = CLK1 (human) (UniProt P49759)
MERTK (human) = MERTK (human) (UniProt Q12866)
DAPK2 (human) = DAPK2 (human) (UniProt Q9UIK4)
ITK (human) = ITK (human) (UniProt Q08881)
HIPK1 (human) = HIPK1 (human) (UniProt Q86Z02)
MAP3K10 (human) = MAP3K10 (human) (UniProt Q02779)
FLT1 (human) = FLT1 (human) (UniProt P17948)
Sequence of FLT1 (human) (P17948 whole entry, looked up): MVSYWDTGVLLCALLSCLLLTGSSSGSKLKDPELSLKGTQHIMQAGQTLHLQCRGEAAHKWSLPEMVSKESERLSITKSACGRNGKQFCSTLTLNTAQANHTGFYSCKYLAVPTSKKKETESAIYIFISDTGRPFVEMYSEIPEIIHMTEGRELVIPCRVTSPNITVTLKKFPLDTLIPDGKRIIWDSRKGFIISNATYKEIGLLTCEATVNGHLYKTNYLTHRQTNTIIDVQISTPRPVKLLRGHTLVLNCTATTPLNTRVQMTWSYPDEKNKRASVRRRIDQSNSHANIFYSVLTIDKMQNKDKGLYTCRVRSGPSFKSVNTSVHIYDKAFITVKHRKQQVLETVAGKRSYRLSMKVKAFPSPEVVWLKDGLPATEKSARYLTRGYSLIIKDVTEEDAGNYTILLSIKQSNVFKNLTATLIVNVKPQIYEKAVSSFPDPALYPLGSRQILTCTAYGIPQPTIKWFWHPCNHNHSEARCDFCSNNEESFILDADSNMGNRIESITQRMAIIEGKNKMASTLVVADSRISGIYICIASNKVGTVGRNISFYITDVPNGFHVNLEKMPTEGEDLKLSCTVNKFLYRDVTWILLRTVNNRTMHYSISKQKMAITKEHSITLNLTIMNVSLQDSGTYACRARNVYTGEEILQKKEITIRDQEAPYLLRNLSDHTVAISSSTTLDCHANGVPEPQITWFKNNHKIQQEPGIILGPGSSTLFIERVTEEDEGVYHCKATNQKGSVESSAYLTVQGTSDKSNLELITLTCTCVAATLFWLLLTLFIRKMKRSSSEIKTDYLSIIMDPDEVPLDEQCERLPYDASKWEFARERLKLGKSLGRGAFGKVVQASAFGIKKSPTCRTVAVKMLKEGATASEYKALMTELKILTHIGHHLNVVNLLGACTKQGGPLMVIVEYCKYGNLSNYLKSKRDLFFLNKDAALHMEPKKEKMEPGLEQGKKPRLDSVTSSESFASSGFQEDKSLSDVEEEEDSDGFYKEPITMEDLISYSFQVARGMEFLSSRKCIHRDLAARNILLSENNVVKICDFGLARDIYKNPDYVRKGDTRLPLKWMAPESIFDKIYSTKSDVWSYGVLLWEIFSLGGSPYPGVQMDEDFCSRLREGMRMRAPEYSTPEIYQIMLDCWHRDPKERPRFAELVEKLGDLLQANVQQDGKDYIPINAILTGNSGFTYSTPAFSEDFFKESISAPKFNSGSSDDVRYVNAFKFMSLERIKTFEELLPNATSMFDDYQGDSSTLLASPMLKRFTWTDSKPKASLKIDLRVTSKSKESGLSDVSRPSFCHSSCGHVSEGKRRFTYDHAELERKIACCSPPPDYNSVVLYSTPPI

BMPR2 (human) = BMPR2 (human) (UniProt Q13873)
MAP2K1 (human) = MAP2K1 (human) (UniProt Q02750)
CLK2 (human) = CLK2 (human) (UniProt P49760)
INSR (human) = INSR (human) (UniProt P06213)
ROCK2 (human) = ROCK2 (human) (UniProt O75116)
Sequence of ROCK2 (human) (O75116 whole entry, looked up): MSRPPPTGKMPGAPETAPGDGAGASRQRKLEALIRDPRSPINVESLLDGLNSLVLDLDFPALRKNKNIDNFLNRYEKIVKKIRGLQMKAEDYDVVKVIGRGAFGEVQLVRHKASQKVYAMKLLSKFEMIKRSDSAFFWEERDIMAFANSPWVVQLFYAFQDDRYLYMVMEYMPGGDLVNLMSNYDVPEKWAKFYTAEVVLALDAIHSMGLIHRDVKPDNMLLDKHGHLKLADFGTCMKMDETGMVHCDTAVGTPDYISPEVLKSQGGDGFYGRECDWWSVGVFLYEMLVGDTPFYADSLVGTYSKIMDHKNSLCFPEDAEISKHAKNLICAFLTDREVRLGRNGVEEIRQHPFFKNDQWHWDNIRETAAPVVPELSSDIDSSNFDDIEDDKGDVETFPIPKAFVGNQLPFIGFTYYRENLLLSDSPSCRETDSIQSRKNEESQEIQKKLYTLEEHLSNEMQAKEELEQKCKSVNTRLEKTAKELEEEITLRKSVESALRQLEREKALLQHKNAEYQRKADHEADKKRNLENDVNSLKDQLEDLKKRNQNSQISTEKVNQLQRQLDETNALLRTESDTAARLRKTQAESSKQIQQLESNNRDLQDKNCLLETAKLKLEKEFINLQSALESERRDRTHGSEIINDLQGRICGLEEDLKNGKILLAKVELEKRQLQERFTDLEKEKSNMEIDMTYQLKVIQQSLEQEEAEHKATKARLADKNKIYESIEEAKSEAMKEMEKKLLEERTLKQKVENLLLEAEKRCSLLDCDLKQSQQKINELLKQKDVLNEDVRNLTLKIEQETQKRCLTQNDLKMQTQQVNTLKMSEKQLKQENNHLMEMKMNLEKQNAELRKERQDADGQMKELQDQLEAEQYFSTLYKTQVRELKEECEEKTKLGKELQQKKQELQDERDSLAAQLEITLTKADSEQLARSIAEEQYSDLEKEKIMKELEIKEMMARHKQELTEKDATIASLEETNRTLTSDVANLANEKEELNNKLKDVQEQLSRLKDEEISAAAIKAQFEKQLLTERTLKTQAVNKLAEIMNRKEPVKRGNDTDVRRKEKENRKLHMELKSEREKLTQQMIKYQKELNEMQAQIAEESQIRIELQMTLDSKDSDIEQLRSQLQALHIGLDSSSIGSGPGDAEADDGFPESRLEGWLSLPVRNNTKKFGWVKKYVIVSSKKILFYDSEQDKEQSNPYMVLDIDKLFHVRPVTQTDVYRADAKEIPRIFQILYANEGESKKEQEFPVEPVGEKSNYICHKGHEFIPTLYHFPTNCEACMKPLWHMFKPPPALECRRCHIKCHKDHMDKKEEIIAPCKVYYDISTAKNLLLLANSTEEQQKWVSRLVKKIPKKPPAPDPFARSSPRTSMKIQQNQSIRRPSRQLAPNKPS

STK32B (human) = STK32B (human) (UniProt Q9NY57)
TXK (human) = TXK (human) (UniProt P42681)
PKN2 (human) = PKN2 (human) (UniProt Q16513)
PRKD2 (human) = PRKD2 (human) (UniProt Q9BZL6)
MAP3K5 (human) = MAP3K5 (human) (UniProt Q99683)
MAP2K3 (human) = MAP2K3 (human) (UniProt P46734)
Sequence of MAP2K3 (human) (P46734 whole entry, looked up): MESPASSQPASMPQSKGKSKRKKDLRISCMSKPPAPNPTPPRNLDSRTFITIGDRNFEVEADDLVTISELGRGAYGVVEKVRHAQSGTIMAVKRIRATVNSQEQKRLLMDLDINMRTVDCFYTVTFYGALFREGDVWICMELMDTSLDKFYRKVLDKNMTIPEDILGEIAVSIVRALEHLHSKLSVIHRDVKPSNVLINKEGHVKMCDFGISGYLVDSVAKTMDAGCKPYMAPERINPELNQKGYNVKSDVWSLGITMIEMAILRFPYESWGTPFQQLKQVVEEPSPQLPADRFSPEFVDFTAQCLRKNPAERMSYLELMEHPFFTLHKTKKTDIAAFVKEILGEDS

MUSK (human) = MUSK (human) (UniProt O15146)
MKNK2 (human) = MKNK2 (human) (UniProt Q9HBH9)
Sequence of MKNK2 (human) (Q9HBH9 whole entry, looked up): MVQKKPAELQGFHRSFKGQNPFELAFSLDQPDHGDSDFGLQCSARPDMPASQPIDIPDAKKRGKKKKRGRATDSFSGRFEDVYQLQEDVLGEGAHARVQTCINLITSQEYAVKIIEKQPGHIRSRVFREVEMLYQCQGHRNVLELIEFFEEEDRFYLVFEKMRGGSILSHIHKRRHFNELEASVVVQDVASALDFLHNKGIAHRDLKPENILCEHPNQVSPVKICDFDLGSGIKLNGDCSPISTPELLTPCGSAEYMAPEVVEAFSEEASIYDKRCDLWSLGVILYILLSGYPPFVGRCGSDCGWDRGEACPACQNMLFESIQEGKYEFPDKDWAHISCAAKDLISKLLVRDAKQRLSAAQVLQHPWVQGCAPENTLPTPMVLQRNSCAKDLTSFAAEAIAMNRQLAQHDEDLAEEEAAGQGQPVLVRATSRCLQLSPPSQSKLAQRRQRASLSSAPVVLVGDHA

MYO3B (human) = MYO3B (human) (UniProt Q8WXR4)
FGR (human) = FGR (human) (UniProt P09769)
EPHA2 (human) = EPHA2 (human) (UniProt P29317)
LATS2 (human) = LATS2 (human) (UniProt Q9NRM7)
CAMK1D (human) = CAMK1D (human) (UniProt Q8IU85)
RPS6KA1 KD1 (human) = RPS6KA1 KD1 (human) (UniProt Q15418)
PIK3C2B (human) = PIK3C2B (human) (UniProt O00750)
CHEK1 (human) = CHEK1 (human) (UniProt O14757)
ULK3 (human) = ULK3 (human) (UniProt Q6PHR2)
CHUK (human) = CHUK (human) (UniProt O15111)
RPS6KA6 KD1 (human) = RPS6KA6 KD1 (human) (UniProt Q9UK32)
Sequence of RPS6KA6 KD1 (human) (Q9UK32 whole entry, looked up): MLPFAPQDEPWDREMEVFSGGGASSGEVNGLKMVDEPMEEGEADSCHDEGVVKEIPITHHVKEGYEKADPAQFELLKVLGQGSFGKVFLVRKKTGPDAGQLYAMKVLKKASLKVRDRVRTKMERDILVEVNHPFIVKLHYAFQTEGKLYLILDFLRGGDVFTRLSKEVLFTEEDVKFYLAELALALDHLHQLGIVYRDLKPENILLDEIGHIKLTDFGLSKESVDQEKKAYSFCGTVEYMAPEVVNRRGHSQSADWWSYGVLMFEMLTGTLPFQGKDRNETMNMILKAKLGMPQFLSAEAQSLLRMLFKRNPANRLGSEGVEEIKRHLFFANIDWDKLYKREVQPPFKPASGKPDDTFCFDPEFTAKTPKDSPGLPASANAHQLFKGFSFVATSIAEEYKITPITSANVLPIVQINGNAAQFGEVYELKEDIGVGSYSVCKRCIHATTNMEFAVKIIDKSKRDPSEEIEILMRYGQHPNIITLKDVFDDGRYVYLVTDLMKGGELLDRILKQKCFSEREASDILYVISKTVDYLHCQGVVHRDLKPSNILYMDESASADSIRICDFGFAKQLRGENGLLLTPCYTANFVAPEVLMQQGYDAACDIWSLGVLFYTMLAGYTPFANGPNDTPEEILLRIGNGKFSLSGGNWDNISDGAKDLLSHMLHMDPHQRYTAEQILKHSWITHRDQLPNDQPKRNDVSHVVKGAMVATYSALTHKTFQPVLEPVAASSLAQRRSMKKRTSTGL

PRKAA1 (human) = PRKAA1 (human) (UniProt Q13131)
DCLK3 (human) = DCLK3 (human) (UniProt Q9C098)
FGFR1 (human) = FGFR1 (human) (UniProt P11362)
Sequence of FGFR1 (human) (P11362 whole entry, looked up): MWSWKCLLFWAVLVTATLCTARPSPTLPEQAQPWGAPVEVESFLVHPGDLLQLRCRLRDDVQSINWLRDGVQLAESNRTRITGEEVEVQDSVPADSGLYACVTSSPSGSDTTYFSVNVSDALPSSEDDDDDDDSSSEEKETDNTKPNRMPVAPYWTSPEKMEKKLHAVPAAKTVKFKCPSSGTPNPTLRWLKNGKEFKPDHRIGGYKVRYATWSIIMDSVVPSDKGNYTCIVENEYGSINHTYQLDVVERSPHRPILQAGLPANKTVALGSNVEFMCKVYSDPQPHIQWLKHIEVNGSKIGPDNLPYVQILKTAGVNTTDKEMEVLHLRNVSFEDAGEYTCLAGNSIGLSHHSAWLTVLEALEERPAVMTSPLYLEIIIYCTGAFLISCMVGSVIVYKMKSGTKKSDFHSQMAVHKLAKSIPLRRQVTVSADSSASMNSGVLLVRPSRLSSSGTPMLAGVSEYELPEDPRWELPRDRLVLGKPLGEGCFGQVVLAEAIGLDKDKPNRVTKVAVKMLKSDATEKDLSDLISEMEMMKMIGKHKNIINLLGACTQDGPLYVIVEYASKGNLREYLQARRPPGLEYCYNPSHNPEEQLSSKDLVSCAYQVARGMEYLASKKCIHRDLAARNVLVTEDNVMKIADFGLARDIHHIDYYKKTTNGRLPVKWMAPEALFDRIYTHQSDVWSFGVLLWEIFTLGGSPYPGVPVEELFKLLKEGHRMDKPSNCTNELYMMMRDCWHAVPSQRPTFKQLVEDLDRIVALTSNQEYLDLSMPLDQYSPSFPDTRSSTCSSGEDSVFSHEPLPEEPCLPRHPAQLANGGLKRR

IGF1R (human) = IGF1R (human) (UniProt P08069)
CAMK1G (human) = CAMK1G (human) (UniProt Q96NX5)
SLK (human) = SLK (human) (UniProt Q9H2G2)
CAMK4 (human) = CAMK4 (human) (UniProt Q16566)

SMILES: CN(C)C/C=C/C(=O)Nc1cccc(Nc2ncc3c(n2)N(C)c2ccccc2C(=O)N3C)c1
- kinase still bound, per cent of control (PRKD1 (human)): 15%
- kinase still bound, per cent of control (CDK3 (human)): 100%
- kinase still bound, per cent of control (CLK1 (human)): 50%
- kinase still bound, per cent of control (MERTK (human)): 46%
- kinase still bound, per cent of control (DAPK2 (human)): 69%
- kinase still bound, per cent of control (ITK (human)): 58%
- kinase still bound, per cent of control (HIPK1 (human)): 76%
- kinase still bound, per cent of control (MAP3K10 (human)): 89%
- kinase still bound, per cent of control (FLT1 (human)): 83%
- kinase still bound, per cent of control (BMPR2 (human)): 71%
- kinase still bound, per cent of control (MAP2K1 (human)): 82%
- kinase still bound, per cent of control (CLK2 (human)): 41%
- kinase still bound, per cent of control (INSR (human)): 100%
- kinase still bound, per cent of control (ROCK2 (human)): 58%
- kinase still bound, per cent of control (STK32B (human)): 100%
- kinase still bound, per cent of control (TXK (human)): 11%
- kinase still bound, per cent of control (PKN2 (human)): 64%
- kinase still bound, per cent of control (PRKD2 (human)): 36%
- kinase still bound, per cent of control (MAP3K5 (human)): 100%
- kinase still bound, per cent of control (MAP2K3 (human)): 100%
- kinase still bound, per cent of control (MUSK (human)): 100%
- kinase still bound, per cent of control (MKNK2 (human)): 0.3%
- kinase still bound, per cent of control (MYO3B (human)): 100%
- kinase still bound, per cent of control (FGR (human)): 4.2%
- kinase still bound, per cent of control (EPHA2 (human)): 82%
- kinase still bound, per cent of control (LATS2 (human)): 97%
- kinase still bound, per cent of control (CAMK1D (human)): 59%
- kinase still bound, per cent of control (RPS6KA1 KD1 (human)): 67%
- kinase still bound, per cent of control (PIK3C2B (human)): 56%
- kinase still bound, per cent of control (CHEK1 (human)): 8.5%
- kinase still bound, per cent of control (ULK3 (human)): 45%
- kinase still bound, per cent of control (CHUK (human)): 100%
- kinase still bound, per cent of control (RPS6KA6 KD1 (human)): 9.2%
- kinase still bound, per cent of control (PRKAA1 (human)): 0.45%
- kinase still bound, per cent of control (DCLK3 (human)): 0.5%
- kinase still bound, per cent of control (FGFR1 (human)): 3.5%
- kinase still bound, per cent of control (IGF1R (human)): 100%
- kinase still bound, per cent of control (CAMK1G (human)): 52%
- kinase still bound, per cent of control (SLK (human)): 7.3%
- kinase still bound, per cent of control (CAMK4 (human)): 100%

SMILES: COc1cc(C(=O)NC2CCN(C)CC2)ccc1Nc1ncc2c(n1)N(C1CCCC1)C(C)CC(=O)N2C (stereo not given)
- kinase still bound, per cent of control (PRKD1 (human)): 100%
- kinase still bound, per cent of control (CDK3 (human)): 100%
- kinase still bound, per cent of control (CLK1 (human)): 18%
- kinase still bound, per cent of control (MERTK (human)): 100%
- kinase still bound, per cent of control (DAPK2 (human)): 100%
- kinase still bound, per cent of control (ITK (human)): 100%
- kinase still bound, per cent of control (HIPK1 (human)): 100%
- kinase still bound, per cent of control (MAP3K10 (human)): 100%
- kinase still bound, per cent of control (FLT1 (human)): 100%
- kinase still bound, per cent of control (BMPR2 (human)): 100%
- kinase still bound, per cent of control (MAP2K1 (human)): 100%
- kinase still bound, per cent of control (CLK2 (human)): 6.2%
- kinase still bound, per cent of control (INSR (human)): 100%
- kinase still bound, per cent of control (ROCK2 (human)): 100%
- kinase still bound, per cent of control (STK32B (human)): 100%
- kinase still bound, per cent of control (TXK (human)): 100%
- kinase still bound, per cent of control (PKN2 (human)): 100%
- kinase still bound, per cent of control (PRKD2 (human)): 100%
- kinase still bound, per cent of control (MAP3K5 (human)): 100%
- kinase still bound, per cent of control (MAP2K3 (human)): 100%
- kinase still bound, per cent of control (MUSK (human)): 100%
- kinase still bound, per cent of control (MKNK2 (human)): 100%
- kinase still bound, per cent of control (MYO3B (human)): 100%
- kinase still bound, per cent of control (FGR (human)): 100%
- kinase still bound, per cent of control (EPHA2 (human)): 100%
- kinase still bound, per cent of control (LATS2 (human)): 100%
- kinase still bound, per cent of control (CAMK1D (human)): 17%
- kinase still bound, per cent of control (RPS6KA1 KD1 (human)): 100%
- kinase still bound, per cent of control (PIK3C2B (human)): 100%
- kinase still bound, per cent of control (CHEK1 (human)): 100%
- kinase still bound, per cent of control (ULK3 (human)): 100%
- kinase still bound, per cent of control (CHUK (human)): 100%
- kinase still bound, per cent of control (RPS6KA6 KD1 (human)): 100%
- kinase still bound, per cent of control (PRKAA1 (human)): 100%
- kinase still bound, per cent of control (DCLK3 (human)): 100%
- kinase still bound, per cent of control (FGFR1 (human)): 100%
- kinase still bound, per cent of control (IGF1R (human)): 32%
- kinase still bound, per cent of control (CAMK1G (human)): 100%
- kinase still bound, per cent of control (SLK (human)): 1.4%
- kinase still bound, per cent of control (CAMK4 (human)): 100%

SMILES: Cc1ccc2nc(NCCN)c3ncc(C)n3c2c1
- kinase still bound, per cent of control (PRKD1 (human)): 47%
- kinase still bound, per cent of control (CDK3 (human)): 100%
- kinase still bound, per cent of control (CLK1 (human)): 72%
- kinase still bound, per cent of control (MERTK (human)): 100%
- kinase still bound, per cent of control (DAPK2 (human)): 65%
- kinase still bound, per cent of control (ITK (human)): 100%
- kinase still bound, per cent of control (HIPK1 (human)): 21%
- kinase still bound, per cent of control (MAP3K10 (human)): 100%
- kinase still bound, per cent of control (FLT1 (human)): 98%
- kinase still bound, per cent of control (BMPR2 (human)): 96%
- kinase still bound, per cent of control (MAP2K1 (human)): 100%
- kinase still bound, per cent of control (CLK2 (human)): 54%
- kinase still bound, per cent of control (INSR (human)): 99%
- kinase still bound, per cent of control (ROCK2 (human)): 100%
- kinase still bound, per cent of control (STK32B (human)): 100%
- kinase still bound, per cent of control (TXK (human)): 90%
- kinase still bound, per cent of control (PKN2 (human)): 71%
- kinase still bound, per cent of control (PRKD2 (human)): 72%
- kinase still bound, per cent of control (MAP3K5 (human)): 80%
- kinase still bound, per cent of control (MAP2K3 (human)): 95%
- kinase still bound, per cent of control (MUSK (human)): 100%
- kinase still bound, per cent of control (MKNK2 (human)): 90%
- kinase still bound, per cent of control (MYO3B (human)): 100%
- kinase still bound, per cent of control (FGR (human)): 100%
- kinase still bound, per cent of control (EPHA2 (human)): 93%
- kinase still bound, per cent of control (LATS2 (human)): 100%
- kinase still bound, per cent of control (CAMK1D (human)): 69%
- kinase still bound, per cent of control (RPS6KA1 KD1 (human)): 79%
- kinase still bound, per cent of control (PIK3C2B (human)): 100%
- kinase still bound, per cent of control (CHEK1 (human)): 91%
- kinase still bound, per cent of control (ULK3 (human)): 76%
- kinase still bound, per cent of control (CHUK (human)): 86%
- kinase still bound, per cent of control (RPS6KA6 KD1 (human)): 88%
- kinase still bound, per cent of control (PRKAA1 (human)): 82%
- kinase still bound, per cent of control (DCLK3 (human)): 76%
- kinase still bound, per cent of control (FGFR1 (human)): 100%
- kinase still bound, per cent of control (IGF1R (human)): 90%
- kinase still bound, per cent of control (CAMK1G (human)): 88%
- kinase still bound, per cent of control (SLK (human)): 100%
- kinase still bound, per cent of control (CAMK4 (human)): 100%
